The values that follow come from patent publication US20080255134A1 (Artesian Therapeutics, Inc., priority 2004, published 2008).

The target of test [1] is T1, human recombinant beta-1 receptors (Homo sapiens, UniProt P08588).
T1 construct: expressed in transfected cells; host or cells: CHO-REX16 cells
Briefly: β1-receptor radioligand binding, [125I] iodocyanopindolol, CHO-REX16 cells. To be noted: at 100 nM. The method, then:
[…] receptor binding was measured in human recombinant beta-1 receptors expressed in CHO-REX16 cells, using [^125I] (-) iodocyanopindolol (2000 Ci/mmol) as the radioligand, as described in Kalaria et al., J. Neurochem. 53: 1772-81 (1998), and Minneman et al., Mol. Pharmacol. 16: 34-46 (1979).

Another test has as its target T2, PDE3 (Homo sapiens, UniProt Q14432).
T2 construct: from tissue; host or cells: human platelets
Briefly: In vitro assay for cAMP PDE-3 inhibitory activity. The test is classed as biochemical. To be noted: human platelet cyclic AMP phosphodiesterase, bound stated. How it is done: Human platelet cyclic AMP phosphodiesterase was prepared according to the method of Alvarez et al., Mol. Pharmacol. 29: 554 (1986). The PDE incubation medium contained 10 mM Tris-HCl buffer, pH 7.7, 10 mM MgSO4, and 1 μM […] (0.2 μCi) in a total volume of 1.0 mL. Test compounds were dissolved in DMSO immediately prior to addition to the incubation medium, and the resulting mixture was allowed to stand for 10 minutes prior to the addition of enzyme. Following the addition of PDE, the contents were mixed and incubated for 10 minutes at 30° C. Three assays each were performed for each of five test compound concentrations, the mean of the determinations (n=3) at each concentration was plotted, and IC50 values were determined graphically.
(§1) The ability of Compounds 25 and 8c to inhibit PDE3 and β-adrenergic receptor activity was examined both in vitro and in vivo. […] Non-selective β-adrenergic and β1-adrenergic radioligand binding assays were performed using rat cortical membranes; β2-adrenergic receptor assays were performed using membranes isolated from CHO cells expressing human, recombinant b2-adrenergic receptor; non-selective α1-adrenergic receptor assays were performed using rat forebrain membranes; and PDE3 binding assays were performed on human platelets. Values in percent illustrate percent inhibition at 1000 nM concentration.

For test [2], the system named is White New Zealand male rabbits. As to the kind of experiment: In vivo hemodynamic effects of compounds administered alone (Protocol 2). Details: species or system rabbit. Particulars: for mean arterial pressure: doses that completely diminished isoproterenol-dependent increase in heart rate, Protocol 2, FIG. 15; for left ventricular contractility when administered alone: protocol 2, relative to control, FIGS. 2, 12. The method, then:
(§2) Studies were performed on White New Zealand male rabbits (2-3 kg weight). Animals were initially anesthetized with ketamine (50 mg/kg; IM) and xylazine (6 mg/kg, IM). Subsequently, animals were intubated (via tracheotomy; 3 mm tube) and ventilated with 2% isoflurane (mixed in 95% O2+5% CO2). Each rabbit was instrumented for LV pressure (3F Millar catheter) through right carotid artery, arterial pressure (3F catheter, Cook Instruments) through left femoral artery, which was connected to a fluid-filled pressure transducer (BD Instruments), and ECG. Both pressure transducers were zeroed against atmospheric pressure, and calibrated before each study using an analog manometer. Upon completion of instrumentation, isoflurane was reduced to 1.25%, and the animal was covered for maintenance of body core temperature. Arterial and LV blood pressures (LVP) and the ECG signals were simultaneously digitally recorded on a PC. The recording system (Gould Instruments) and the corresponding software (Ponema, Gould Instruments) facilitated detailed calculation of various parameters directly from all signals and record on a separate file with a 1 sec resolution. Upon completion of the study protocol, rabbits were euthenized by isoflurane overdose (5% for at least 1 minute) and cardiac arrest through IV infusion of 5 ml 3 molar potassium chloride.
(§3) Once the physiological variables were stable, effects of each drug on hemodynamics and ECG were determined based on two different protocols: 1) infusion of a compound of the present invention to determine the effects of the compound itself mainly on contractility, and other hemodynamic indices; and 2) infusion of a compound of the present invention while the system was challenged with 0.5 ug/kg isoproterenol to determine the beta-adrenergic antagonism properties of each tested compound.
(§4) White New Zealand male rabbits (2-3 kg) were anesthetized and ventilated (95% O2+5% CO2) with 1.25% isoflurane. Each animal was instrumented for LV pressure (Millar, through left carotid artery), arterial pressure (left femoral artery), infusion (jugular vein), and electrocardiogram. The animals were administered intravenously based on one of these protocols:
Protocol 2: PDE3 inhibition (effects of compounds when administered alone).

For another test, the target named is T3, β1-adrenergic receptor (Rattus norvegicus, UniProt P18090).
T3 construct: from tissue; host or cells: rat cortical membranes
As to the kind of experiment: β1-adrenergic radioligand binding assay using rat cortical membranes. Particulars: at 1000 nM concentration, read-out: β1-adrenergic percent inhibition. The method, then:
(§5) Non-selective β-adrenergic and β1-adrenergic radioligand binding assays were performed using rat cortical membranes; β2-adrenergic receptor assays were performed using membranes isolated from CHO cells expressing human, recombinant b2-adrenergic receptor; non-selective α1-adrenergic receptor assays were performed using rat forebrain membranes; and PDE3 binding assays were performed on human platelets. Values in percent illustrate percent inhibition at 1000 nM concentration.

Test [3] deals with White New Zealand male rabbits. As to the kind of experiment: In vivo β-adrenergic blockade, isoproterenol challenge (Protocol 1). Details: species or system rabbit. Particulars: for decrease of left ventricular contractility (% of isoproterenol effect): doses that completely diminished isoproterenol-dependent increase in heart rate: atenolol 1 mg/kg, carvedilol 0.3 mg/kg, Compound 8c 1 mg/kg, mean±SEM. The method, then: as §2, §3, §4
Protocol 1: β-adrenergic blockade (isoproterenol challenge).

The subject of the next test is α1-adrenergic receptor. As to the kind of experiment: Non-selective α1-adrenergic receptor assay using rat forebrain membranes. The test is classed as binding. How it is done: as §1
Test [4] concerns the target T4, human recombinant beta-2 receptors (Homo sapiens, UniProt P07550).
T4 construct: expressed in transfected cells; host or cells: CHO-WT21 cells
Briefly: β2-receptor radioligand binding, [125I] iodocyanopindolol, CHO-WT21 cells. To be noted: at 100 nM. The method, then: as §5

In test [5] the test system is naive anesthetized canines. As to the kind of experiment: Contractility in naive anesthetized canines (protocol 2). The test is classed as in vivo, canine. Particulars: administered alone (protocol 2), FIG. 17.
Setting [6] is: read-out: PDE IC50 inhibition values.

The structures appear in SMILES notation. Where two headings read alike, the source gives them in different places. Where only a bound is given, the exact number is not on record here.

T1 sequence (P08588 whole entry): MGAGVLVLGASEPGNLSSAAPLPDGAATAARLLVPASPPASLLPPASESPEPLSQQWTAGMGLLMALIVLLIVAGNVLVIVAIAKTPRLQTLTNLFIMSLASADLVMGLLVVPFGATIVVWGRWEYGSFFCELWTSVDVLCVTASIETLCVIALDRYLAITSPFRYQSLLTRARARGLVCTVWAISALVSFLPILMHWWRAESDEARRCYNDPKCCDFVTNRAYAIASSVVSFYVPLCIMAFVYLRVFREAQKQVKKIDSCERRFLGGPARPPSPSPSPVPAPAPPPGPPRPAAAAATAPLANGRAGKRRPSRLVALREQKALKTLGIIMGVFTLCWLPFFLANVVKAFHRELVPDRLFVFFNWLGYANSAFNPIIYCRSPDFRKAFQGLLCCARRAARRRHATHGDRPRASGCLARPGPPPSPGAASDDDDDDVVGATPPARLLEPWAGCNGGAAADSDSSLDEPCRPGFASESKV
T2 sequence (Q14432 whole entry): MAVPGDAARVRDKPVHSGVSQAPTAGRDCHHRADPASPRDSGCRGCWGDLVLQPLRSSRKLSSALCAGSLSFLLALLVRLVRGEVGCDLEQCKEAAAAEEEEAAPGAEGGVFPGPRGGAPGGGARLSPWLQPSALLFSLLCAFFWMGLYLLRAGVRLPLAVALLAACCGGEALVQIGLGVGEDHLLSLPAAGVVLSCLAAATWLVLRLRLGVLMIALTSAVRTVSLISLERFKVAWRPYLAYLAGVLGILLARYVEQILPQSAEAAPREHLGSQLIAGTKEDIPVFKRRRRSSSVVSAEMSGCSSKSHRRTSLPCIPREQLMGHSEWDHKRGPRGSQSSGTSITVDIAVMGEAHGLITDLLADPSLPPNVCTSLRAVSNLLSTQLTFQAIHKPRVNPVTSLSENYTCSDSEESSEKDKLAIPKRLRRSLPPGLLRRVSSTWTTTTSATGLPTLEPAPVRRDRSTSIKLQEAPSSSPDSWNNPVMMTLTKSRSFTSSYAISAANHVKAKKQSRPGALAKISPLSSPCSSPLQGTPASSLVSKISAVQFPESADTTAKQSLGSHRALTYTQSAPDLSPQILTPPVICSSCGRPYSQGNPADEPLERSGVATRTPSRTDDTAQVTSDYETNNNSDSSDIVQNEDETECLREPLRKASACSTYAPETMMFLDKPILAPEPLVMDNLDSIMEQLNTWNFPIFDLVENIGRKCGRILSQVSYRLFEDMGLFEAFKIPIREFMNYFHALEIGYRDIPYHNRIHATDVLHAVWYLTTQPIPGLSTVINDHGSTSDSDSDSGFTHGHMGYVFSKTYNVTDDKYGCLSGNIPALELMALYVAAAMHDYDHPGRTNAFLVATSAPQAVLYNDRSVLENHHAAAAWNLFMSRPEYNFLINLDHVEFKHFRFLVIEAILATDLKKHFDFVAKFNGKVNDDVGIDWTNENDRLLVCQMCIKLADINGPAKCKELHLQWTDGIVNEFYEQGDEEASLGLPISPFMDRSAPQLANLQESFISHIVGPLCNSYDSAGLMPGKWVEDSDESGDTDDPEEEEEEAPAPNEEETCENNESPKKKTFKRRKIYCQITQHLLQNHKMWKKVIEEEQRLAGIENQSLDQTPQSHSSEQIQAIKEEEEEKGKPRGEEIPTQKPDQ
T4 sequence (P07550 whole entry): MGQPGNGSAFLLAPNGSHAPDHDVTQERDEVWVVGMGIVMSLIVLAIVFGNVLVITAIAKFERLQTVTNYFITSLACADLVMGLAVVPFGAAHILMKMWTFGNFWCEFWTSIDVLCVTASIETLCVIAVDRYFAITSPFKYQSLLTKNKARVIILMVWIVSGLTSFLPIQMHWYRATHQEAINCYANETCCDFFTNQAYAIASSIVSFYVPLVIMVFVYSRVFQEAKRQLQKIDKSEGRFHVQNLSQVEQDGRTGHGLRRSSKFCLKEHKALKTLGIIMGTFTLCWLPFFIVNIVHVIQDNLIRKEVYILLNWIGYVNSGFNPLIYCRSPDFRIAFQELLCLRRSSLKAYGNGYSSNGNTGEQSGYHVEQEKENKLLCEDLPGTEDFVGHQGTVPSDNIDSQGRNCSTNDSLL
T3 sequence (P18090 whole entry): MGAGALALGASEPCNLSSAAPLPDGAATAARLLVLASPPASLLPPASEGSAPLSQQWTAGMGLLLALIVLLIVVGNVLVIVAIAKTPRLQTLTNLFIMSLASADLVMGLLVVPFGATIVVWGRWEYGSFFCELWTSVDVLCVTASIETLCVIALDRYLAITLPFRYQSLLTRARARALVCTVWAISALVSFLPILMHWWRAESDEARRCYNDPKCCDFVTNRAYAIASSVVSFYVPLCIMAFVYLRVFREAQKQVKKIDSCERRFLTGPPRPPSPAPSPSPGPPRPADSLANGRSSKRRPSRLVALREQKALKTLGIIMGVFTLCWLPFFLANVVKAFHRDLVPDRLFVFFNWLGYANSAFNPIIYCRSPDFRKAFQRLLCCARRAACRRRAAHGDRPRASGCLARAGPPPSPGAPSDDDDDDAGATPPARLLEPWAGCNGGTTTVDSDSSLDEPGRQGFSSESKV

Consider `COCCc1ccc(OC[C@@H](O)CNCCCCOc2ccc(C3=NNC(=O)CC3)cc2Cl)cc1` [Compound 44], for which, in test [1], the inhibition at 0.1 µM was over 25%. Moreover, the IC50 on PDE3 (read-out: PDE3 inhibition IC50) is under 1000 nM.

As for `COCCc1ccc(OC[C@@H](O)CNCCOc2ccc(C3=NNC(=O)CC3)cc2Cl)cc1` [Compound 41, 6-[3-Chloro-4-(3-{(S)-2-hydroxy-propylamino]-ethoxy}-phenyl)-4,5-dihydro-2H-pyridazin-3-one], the inhibition at 0.1 µM in test [1] was over 25%. Moreover, the values for the IC50 on PDE3 (read-out: PDE3 inhibition IC50) and on PDE3 (setting [6]) were under 1000 nM and under 100 nM, respectively.

For `CC(C)NCC(O)COc1ccc(CC(N)=O)cc1` (stereo not drawn) [Atenolol, reference compound], in test [2], the mean arterial pressure entry is listed as “decreased mean arterial pressure” and the “left ventricular contractility when administered alone” value is reported as “decreased contractility”. Further, the inhibition at 1 µM on β1-adrenergic receptor was 23%. Also, the “decrease of left ventricular contractility (% of isoproterenol effect)” value in test [3] turned out to be 82±2%. The “α1-adrenergic IC50, nM” value in the test with α1-adrenergic receptor is “inactive”.

As for `Cc1ccc(OC[C@@H](O)CNC2CCN(C(=O)COc3ccc(C4=NNC(=O)CC4)cc3Cl)CC2)cc1` [Compound 8p, 6-(3-chloro-4-{2-[4-(2-hydroxy-3-p-tolyloxy-propylamino)-piperidin-1-yl]-2-oxo-ethoxy}-phenyl)-4,5-dihydro-2H-pyridazin-3-one], the inhibition at 0.1 µM in test [4] is over 25%. Besides, the IC50 at PDE3 (read-out: PDE3 inhibition IC50) was under 1000 nM.

Consider `COc1ccccc1OCCNCC(O)COc1cccc2[nH]c3ccccc3c12` (stereo not drawn) [Carvedilol, reference compound], for which, in test [2], the mean arterial pressure result is recorded as “decreased mean arterial pressure” and the “left ventricular contractility when administered alone” value is recorded as “decreased contractility”. For the same compound, in test [5], the “contractility in naive anesthetized canines” value was “decreased this parameter at the higher doses”. For the same compound, the “contractility (LV+dP/dtmax) at ED50” value in test [3] (Compound 25 0.3 mg/kg, carvedilol 0.1 mg/kg, Protocol 1, FIG. 13) is given as “decreased this parameter”. In addition, the ED50 in test [3] (Oryctolagus cuniculus, isoproterenol challenge (0.5 μg/kg), intravenous, read-out: ED50, dose that diminished isoproterenol-dependent increase in HR by 50%) came to 0.1 mg/kg. In test [3] (compared to control, Protocol 1, FIG. 13), the “relaxation properties (Tau) at ED50” value is recorded as “negative lusitropic effect”. For the same compound, the “decrease of left ventricular contractility (% of isoproterenol effect)” value in test [3] is on record as 82±7%. The IC50 at α1-adrenergic receptor is […].

Turning to `O=C1CCC(c2ccc(OCC(=O)N3CCC(NC[C@H](O)COc4ccccc4Br)CC3)c(Cl)c2)=NN1` [Compound 8d, 6-[4-(2-{4-[3-(2-bromo-phenoxy)-2-hydroxy-propylamino]-piperidin-1-yl}-2-oxo-ethoxy)-3-chloro-phenyl]-4,5-dihydro-2H-pyridazin-3-one], the inhibition at 0.1 µM in test [4] and in test [1] was over 25% each time. For the same compound, the half-maximal inhibitory concentration (IC50) at PDE3 (read-out: PDE3 inhibition IC50) is under 1000 nM; on PDE3 (setting [6]) it was under 100 nM.

Consider `O=C1CCC(c2ccc(OCC(=O)N3CCC(NC[C@H](O)COc4ccccc4F)CC3)c(Cl)c2)=NN1` [Compound 8b, 6-[3-Chloro-4-(2-{4-[3-(2-fluoro-phenoxy)-2-hydroxy-propylamino]-piperidin-1-yl}-2-oxo-ethoxy)-phenyl]-4,5-dihydro-2H-pyridazin-3-one], for which the IC50 at PDE3 (read-out: PDE3 inhibition IC50) is under 1000 nM.

In the case of `O=C1CCC(c2ccc(OCC(=O)N3CCC(NC[C@H](O)COc4ccccc4C(F)(F)F)CC3)c(Cl)c2)=NN1` [Compound 8g, 6-[3-chloro-4-(2-{4-[2-hydroxy-3-(2-trifluoromethyl-phenoxy)-propylamino]-piperidin-1-yl}-2-oxo-ethoxy)-phenyl]-4,5-dihydro-2H-pyridazin-3-one], the inhibition at 0.1 µM in test [4] and in test [1] was over 25% in each case. Besides, the IC50 on PDE3 (read-out: PDE3 inhibition IC50) was under 1000 nM; at PDE3 (setting [6]) it was under 100 nM.

As for `CC(C)(CNC(=O)COc1ccc(C2=NNC(=O)CC2)cc1Cl)NCC(O)COc1cccc2[nH]c3ccccc3c12` (stereo not drawn) [Compound 49, N-{2-[3-(9H-carbazol-4-yloxy)-2-hydroxy-propylamino]-2-methyl-propyl}-2-[2-chloro-4-(6-oxo-1,4,5,6-tetrahydro-pyridazin-3-yl)-phenoxy]-acetamide], the inhibition at 0.1 µM in test [4] and in test [1] was over 25% each time. Further, the values for the IC50 on PDE3 (read-out: PDE3 inhibition IC50) and on PDE3 (setting [6]) were under 1000 nM and under 100 nM, respectively.

Take `O=C1CCC(c2ccc(OCC(=O)N3CCC(NC[C@H](O)COc4cccc5[nH]c6ccccc6c45)CC3)c(Cl)c2)=NN1` [Compound 17, 6-[4-(2-{4-[(S)-3-(9H-Carbazol-4-yloxy)-2-hydroxy-propylamino]-piperidin-1-yl}-2-oxo-ethoxy)-3-chloro-phenyl]-4,5-dihydro-2H-pyridazin-3-one]: the IC50 at PDE3 (read-out: PDE3 inhibition IC50) is under 1000 nM.

For `CC(=O)c1ccccc1OC[C@@H](O)CNC1CCN(C(=O)COc2ccc(C3=NNC(=O)CC3)cc2Cl)CC1` [Compound 8k, 6-[4-(2-{4-[3-(2-acetyl-phenoxy)-2-hydroxy-propylamino]-piperidin-1-yl}-2-oxo-ethoxy)-3-chloro-phenyl]-4,5-dihydro-2H-pyridazin-3-one], the IC50 at PDE3 (read-out: PDE3 inhibition IC50) is under 1000 nM.

Take `Cc1ccccc1OC[C@@H](O)CNC1CCN(C(=O)COc2ccc(C3=NNC(=O)CC3)cc2Cl)CC1` [Compound 8f, 6-(3-chloro-4-{2-[4-(2-hydroxy-3-o-tolyloxy-propylamino)-piperidin-1-yl]-2-oxo-ethoxy}-phenyl)-4,5-dihydro-2H-pyridazin-3-one]: the IC50 on PDE3 (read-out: PDE3 inhibition IC50) was under 1000 nM.

One may read the inhibition as how much of the control response was suppressed. Broadly, the IC50 is the concentration needed to halve the response being measured. The ED50 is the dose at which the effect has come halfway, by size or by number of responders.
